Measurements as given in ChEMBL document CHEMBL3813615, “Novel JAK1-selective benzimidazole inhibitors with enhanced membrane permeability” (Bioorg Med Chem Lett, 2016).

How the values were obtained:
[1] = target: Tyrosine-protein kinase JAK1 (Mus musculus, UniProt P52332); assay: Inhibition of FLAG-tagged mouse JAK1 expressed in insect Sf9 cells using biotin-EQEDEPEGDYFEWLE-NH2 as substrate
[2] = target: Tyrosine-protein kinase JAK1 (Homo sapiens, UniProt P23458); assay: Inhibition of JAK1 (unknown origin) using tyrosine 6 peptide as substrate by z'-lyte assay
Chain of Tyrosine-protein kinase JAK1 (Homo sapiens, UniProt P23458) (P23458 whole entry): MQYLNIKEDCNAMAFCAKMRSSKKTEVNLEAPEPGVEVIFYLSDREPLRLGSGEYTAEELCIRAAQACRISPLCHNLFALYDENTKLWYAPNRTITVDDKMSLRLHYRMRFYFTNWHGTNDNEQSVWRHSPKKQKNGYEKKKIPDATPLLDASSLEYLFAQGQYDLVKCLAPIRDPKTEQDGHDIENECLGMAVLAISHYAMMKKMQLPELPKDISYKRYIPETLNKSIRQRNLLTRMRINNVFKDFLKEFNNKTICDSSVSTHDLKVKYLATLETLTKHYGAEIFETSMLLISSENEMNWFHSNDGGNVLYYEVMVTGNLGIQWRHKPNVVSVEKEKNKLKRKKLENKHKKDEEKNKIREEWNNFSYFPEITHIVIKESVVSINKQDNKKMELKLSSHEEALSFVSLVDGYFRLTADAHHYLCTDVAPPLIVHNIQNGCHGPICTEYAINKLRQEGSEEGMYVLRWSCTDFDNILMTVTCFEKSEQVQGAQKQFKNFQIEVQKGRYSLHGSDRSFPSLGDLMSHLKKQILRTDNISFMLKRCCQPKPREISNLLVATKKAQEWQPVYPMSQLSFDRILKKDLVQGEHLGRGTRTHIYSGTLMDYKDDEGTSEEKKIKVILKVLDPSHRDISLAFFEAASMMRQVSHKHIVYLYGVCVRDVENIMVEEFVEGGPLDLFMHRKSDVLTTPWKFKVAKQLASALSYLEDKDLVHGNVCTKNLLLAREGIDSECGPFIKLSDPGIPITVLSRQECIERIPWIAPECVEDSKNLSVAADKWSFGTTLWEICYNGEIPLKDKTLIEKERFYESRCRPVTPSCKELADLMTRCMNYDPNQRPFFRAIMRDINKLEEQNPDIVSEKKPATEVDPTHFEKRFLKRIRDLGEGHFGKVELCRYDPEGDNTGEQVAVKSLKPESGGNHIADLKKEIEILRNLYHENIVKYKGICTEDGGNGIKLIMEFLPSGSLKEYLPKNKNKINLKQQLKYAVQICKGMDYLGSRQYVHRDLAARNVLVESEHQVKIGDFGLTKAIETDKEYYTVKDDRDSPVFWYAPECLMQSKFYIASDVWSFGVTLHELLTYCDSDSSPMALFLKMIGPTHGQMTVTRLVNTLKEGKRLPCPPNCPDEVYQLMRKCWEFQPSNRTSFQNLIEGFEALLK

[3] = target: T1, Tyrosine-protein kinase JAK3 (Homo sapiens, UniProt P52333); assay: Inhibition of JAK3 (unknown origin) using tyrosine 6 peptide as substrate by z'-lyte assay
T1 sequence (P52333 whole entry): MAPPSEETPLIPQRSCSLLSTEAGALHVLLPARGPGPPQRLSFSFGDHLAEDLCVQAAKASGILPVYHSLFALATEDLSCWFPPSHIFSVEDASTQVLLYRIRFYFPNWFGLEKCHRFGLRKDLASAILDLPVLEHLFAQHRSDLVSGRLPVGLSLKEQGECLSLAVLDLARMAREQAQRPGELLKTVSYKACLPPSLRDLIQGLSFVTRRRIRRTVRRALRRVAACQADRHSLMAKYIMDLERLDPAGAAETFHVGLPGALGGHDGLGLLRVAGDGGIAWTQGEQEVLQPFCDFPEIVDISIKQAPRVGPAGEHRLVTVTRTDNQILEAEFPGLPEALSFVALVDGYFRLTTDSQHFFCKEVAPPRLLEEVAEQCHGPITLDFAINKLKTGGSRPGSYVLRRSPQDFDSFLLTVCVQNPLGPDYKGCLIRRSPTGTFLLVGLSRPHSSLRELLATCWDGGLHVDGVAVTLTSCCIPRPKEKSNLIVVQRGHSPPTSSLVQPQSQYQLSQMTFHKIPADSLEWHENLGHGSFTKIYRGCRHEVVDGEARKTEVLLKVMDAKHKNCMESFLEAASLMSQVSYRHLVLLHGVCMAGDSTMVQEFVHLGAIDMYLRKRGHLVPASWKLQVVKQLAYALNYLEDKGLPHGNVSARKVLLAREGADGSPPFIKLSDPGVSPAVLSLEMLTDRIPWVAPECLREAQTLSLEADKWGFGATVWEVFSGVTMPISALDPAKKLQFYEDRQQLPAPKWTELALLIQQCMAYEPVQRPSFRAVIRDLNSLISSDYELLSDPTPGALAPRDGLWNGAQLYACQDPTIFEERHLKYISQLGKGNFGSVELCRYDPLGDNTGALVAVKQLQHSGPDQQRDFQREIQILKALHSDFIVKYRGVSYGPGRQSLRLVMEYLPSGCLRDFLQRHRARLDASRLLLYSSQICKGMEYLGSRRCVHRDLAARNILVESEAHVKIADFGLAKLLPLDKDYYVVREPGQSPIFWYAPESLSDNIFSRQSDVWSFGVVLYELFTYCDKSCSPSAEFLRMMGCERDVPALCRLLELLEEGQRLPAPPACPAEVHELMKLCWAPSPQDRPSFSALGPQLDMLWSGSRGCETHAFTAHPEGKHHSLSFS

[4] = target: Non-receptor tyrosine-protein kinase TYK2 (Homo sapiens, UniProt P29597); assay: Inhibition of TYK2 (unknown origin) using tyrosine 3 peptide as substrate by z'-lyte assay
Chain of Non-receptor tyrosine-protein kinase TYK2 (P29597 whole entry): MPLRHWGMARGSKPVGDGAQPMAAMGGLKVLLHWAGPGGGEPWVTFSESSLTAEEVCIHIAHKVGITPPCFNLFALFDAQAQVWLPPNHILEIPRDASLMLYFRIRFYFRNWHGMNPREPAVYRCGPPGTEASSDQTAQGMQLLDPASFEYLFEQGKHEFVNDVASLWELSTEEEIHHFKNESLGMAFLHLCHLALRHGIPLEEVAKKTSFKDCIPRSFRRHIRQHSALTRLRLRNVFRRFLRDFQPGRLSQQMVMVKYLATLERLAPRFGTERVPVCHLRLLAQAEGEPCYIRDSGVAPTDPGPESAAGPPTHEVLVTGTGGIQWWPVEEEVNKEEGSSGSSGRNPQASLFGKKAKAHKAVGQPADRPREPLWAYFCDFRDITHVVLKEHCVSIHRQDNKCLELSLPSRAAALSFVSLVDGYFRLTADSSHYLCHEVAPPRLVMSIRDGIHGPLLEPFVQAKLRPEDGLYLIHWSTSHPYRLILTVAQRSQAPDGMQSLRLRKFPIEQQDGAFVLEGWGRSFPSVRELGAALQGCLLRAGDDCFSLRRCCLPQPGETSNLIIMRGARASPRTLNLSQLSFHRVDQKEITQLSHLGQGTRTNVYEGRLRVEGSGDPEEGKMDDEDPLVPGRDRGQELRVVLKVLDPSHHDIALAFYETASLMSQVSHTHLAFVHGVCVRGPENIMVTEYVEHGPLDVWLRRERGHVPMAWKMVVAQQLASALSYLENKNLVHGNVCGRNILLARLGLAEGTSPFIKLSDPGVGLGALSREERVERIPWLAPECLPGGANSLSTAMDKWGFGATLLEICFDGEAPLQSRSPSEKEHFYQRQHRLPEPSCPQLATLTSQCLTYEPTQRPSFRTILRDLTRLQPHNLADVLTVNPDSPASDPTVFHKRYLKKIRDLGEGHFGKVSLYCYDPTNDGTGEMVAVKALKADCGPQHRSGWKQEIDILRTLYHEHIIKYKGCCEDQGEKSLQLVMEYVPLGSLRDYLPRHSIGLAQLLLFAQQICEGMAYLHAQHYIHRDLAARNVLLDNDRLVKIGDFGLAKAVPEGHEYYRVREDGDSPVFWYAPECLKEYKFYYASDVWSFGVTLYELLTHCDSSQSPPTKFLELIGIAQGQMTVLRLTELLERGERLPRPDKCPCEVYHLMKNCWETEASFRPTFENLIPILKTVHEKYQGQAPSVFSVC

[5] = target: Tyrosine-protein kinase JAK2 (Homo sapiens, UniProt O60674); assay: Inhibition of JAK2 (unknown origin) using tyrosine 6 peptide as substrate by z'-lyte assay
Chain of Tyrosine-protein kinase JAK2 (O60674 whole entry): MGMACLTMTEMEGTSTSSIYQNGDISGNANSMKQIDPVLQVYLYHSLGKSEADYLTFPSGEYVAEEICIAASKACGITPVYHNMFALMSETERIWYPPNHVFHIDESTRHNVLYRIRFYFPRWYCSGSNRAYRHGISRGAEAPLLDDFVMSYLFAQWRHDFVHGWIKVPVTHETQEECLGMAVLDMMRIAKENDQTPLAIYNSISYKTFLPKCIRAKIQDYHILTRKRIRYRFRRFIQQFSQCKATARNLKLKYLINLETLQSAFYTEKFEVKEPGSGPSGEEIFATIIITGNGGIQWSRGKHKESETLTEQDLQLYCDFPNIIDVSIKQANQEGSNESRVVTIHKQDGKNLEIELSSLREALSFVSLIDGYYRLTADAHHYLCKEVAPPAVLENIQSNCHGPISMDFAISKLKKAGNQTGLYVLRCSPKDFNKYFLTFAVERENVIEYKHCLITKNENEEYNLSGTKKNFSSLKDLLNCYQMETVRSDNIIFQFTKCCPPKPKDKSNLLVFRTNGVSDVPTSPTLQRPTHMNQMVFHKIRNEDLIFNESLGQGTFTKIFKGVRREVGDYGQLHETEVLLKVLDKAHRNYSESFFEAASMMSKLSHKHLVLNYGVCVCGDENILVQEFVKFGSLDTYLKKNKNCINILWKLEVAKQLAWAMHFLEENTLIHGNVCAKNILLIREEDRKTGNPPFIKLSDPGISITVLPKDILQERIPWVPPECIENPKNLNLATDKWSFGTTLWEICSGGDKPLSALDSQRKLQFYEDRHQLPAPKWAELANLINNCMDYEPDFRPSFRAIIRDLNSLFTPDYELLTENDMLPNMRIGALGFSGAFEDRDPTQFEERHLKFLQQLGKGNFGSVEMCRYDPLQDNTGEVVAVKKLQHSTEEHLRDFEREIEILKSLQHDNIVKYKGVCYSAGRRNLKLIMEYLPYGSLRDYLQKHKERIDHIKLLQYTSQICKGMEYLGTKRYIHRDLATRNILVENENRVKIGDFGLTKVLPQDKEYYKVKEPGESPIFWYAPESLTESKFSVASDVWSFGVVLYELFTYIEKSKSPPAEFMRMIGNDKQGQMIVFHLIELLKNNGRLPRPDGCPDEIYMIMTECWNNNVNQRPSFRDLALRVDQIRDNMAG

Chain of Tyrosine-protein kinase JAK1 (Mus musculus, UniProt P52332) (P52332 whole entry): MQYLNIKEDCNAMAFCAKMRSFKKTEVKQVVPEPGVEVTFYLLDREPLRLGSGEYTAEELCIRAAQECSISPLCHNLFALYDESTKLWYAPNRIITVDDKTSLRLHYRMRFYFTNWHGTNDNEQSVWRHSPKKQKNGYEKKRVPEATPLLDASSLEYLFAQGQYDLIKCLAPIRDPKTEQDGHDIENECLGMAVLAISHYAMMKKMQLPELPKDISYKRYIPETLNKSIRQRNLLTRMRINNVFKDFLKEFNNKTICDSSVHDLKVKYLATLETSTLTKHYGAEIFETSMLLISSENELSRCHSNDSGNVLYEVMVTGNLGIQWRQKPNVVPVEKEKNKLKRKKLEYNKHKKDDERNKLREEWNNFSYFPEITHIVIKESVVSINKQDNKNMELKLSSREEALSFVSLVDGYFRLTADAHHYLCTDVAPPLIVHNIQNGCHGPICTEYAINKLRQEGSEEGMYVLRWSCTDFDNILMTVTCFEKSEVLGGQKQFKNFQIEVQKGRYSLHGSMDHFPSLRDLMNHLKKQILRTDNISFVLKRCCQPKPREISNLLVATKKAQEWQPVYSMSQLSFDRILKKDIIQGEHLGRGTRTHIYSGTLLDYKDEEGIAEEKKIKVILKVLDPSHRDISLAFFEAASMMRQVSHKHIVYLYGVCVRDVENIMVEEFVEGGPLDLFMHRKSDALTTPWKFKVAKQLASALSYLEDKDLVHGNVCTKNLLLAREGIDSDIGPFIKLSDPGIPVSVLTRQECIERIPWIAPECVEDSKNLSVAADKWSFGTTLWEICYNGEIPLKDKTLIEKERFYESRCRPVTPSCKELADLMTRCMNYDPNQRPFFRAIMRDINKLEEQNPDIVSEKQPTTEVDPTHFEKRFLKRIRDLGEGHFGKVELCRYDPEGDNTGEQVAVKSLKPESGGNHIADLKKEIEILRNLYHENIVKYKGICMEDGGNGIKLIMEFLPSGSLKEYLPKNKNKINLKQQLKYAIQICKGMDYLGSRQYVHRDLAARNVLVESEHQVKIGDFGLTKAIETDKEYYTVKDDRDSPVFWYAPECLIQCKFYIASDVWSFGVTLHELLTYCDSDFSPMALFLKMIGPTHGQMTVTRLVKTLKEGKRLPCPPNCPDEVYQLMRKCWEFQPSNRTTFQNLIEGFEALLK

| SMILES | IC50 [1] [µM] | IC50 [2] [µM] | IC50 [3] [µM] | IC50 [4] [µM] | IC50 [5] [µM] |
| --- | --- | --- | --- | --- | --- |
| NCCn1c(C2CCNCC2)nc2cc(C(N)=O)ccc21 | 0.05 | – | – | – | – |
| NCCCn1c(C2CCNCC2)nc2cc(C(N)=O)ccc21 | – | 5.4 | 14.3 | 31 | – |
| CNCCn1c(C2CCNCC2)nc2cc(C(N)=O)ccc21 | – | 0.09 | 1.5 | 4.1 | 3.1 |
| CNCCn1c2ccc(C(N)=O)cc2nc1[C@H]1CC[C@H](O)CC1 | – | 0.15 | 1.9 | 5.6 | 3.9 |

More lines, in order of falling IC50 [2], values ahead:

| IC50 [1] [µM] | IC50 [2] [µM] | IC50 [3] [µM] | IC50 [4] [µM] | IC50 [5] [µM] | SMILES |
| --- | --- | --- | --- | --- | --- |
| – | 7 | 20.6 | 42.2 | 29.7 | NC(=O)c1ccc2c(c1)nc([C@H]1CC[C@H](O)CC1)n2CCCO |
| – | 5.3 | 12.4 | 30.7 | – | NCCCn1c2ccc(C(N)=O)cc2nc1[C@H]1CC[C@H](O)CC1 |
| – | 2 | 8.5 | 25.7 | 12.1 | C[C@@H](O)Cn1c2ccc(C(N)=O)cc2nc1[C@H]1CC[C@H](O)CC1 |
| – | 0.08 | 1.8 | 4.3 | 3.2 | NC(=O)c1ccc2c(c1)nc([C@H]1CC[C@H](O)CC1)n2CCO |
